{
  "source": "paper PMC6158189",
  "about": "“A pharmacological probe identifies cystathionine β-synthase as a new negative regulator for ferroptosis” (Cell Death & Disease, 2018)",
  "key": {"HepG2 cells [1]": {"system": "HepG2 cells", "experiment": "lipid ROS (BODIPY 581/591 C11, flow cytometry)", "assay_type": "cell-based, human", "settings": "24 h; for accumulation of lipid ROS in HepG2 cells: up to 15 μM", "description": "(§1) To detect lipid peroxidation upon treatment with CH004, HepG2 cells or mouse embryonic fibroblasts (MEF) were seeded in 12-well plates with ~ 1.8 × 10^5 cells per well for 24 h. After treatment with the inhibitor for another 24 h, cells were stained with BODIPY® 581/591 C11 (Invitrogen) for 1 h at a final concentration of 2 μM at 37 °C[57]. The cells were then resuspended in an appropriate amount of PBS after being washed once with PBS. Lipid peroxidation, i.e., lipid ROS, was analyzed by detection of the fluorescence using an LSR Fortessa flow cytometer. The data were recorded at 530/30 nm (green fluorescent) and 670/30 nm (red fluorescent) wavelengths after excitation at 488 nm. A minimum of 20000 events was used for the analysis. All the experiments were independently repeated twice in triplicate.\nFigure S15. The mode of actions for CH004 in cells. […] Indicated HEK293T stable cell lines were treated with CH004 at a concentration of 10 µM for 24 h, and the cell viability was then measured using the CellTiter96® Aqueous One Solution Cell Proliferation Assay (Promega). Means ± SDs (n=3). (B-C) CH004 or erastin triggers ferroptosis in mouse embryonic fibroblasts (MEF). WT MEF cells were treated with CH004 or erastin at indicated concentrations in the presence or the absence of 500 µM DFO for 24 h before measuring the lipid ROS with 2 μM BODIPY® 581/591 C11 (Materials and methods). […] Erastin at micromolar concentrations were incubated with HepG2 cells for 24 h before measuring the lipid ROS (see above and Materials and methods). […] Means ± SDs (n=3). […] CH004 or erastin at a concentration of 20 µM was incubated with HepG2 cells for 48 h or 72 h in the presence or the absence of 100 µM DFO. The cell viability was accordingly quantified using the CellTiter96® Aqueous One Solution Cell Proliferation Assay (Promega) and the results were shown as percentages of DMSO (control, 100%). Means ± SDs (n=3). All the experiments were independently repeated at least twice and one representative result is present. Table S1 The inhibitory effects of CH004 on purified hCBS, hCSE and hDDC."}, "HepG2 cells [2]": {"system": "HepG2 cells", "experiment": "rescue of CH004-induced loss of viability by cell death inhibitors (CellTiter 96)", "assay_type": "cell-based, human", "settings": "100 µM DFO, 48 h or 72 h", "description": "To measure cell viability and cytotoxicity, HepG2, HEK293T, Huh-7, H22, Panc-28, HCT116 and MDA-MB-231 cells were seeded at a density of ~ 2 × 10^4 cells per well in 96-well plates (Coring, NY, USA) for one day, followed by incubation with DMSO or various concentrations of tested compound for indicated times. Then, the cells were collected to measure the cell viability using the CellTiter 96® Aqueous One Solution Cell Proliferation Assay (Promega, G3581) according to the standard protocols.\n(§2) Figure S15. The mode of actions for CH004 in cells. […] Indicated HEK293T stable cell lines were treated with CH004 at a concentration of 10 µM for 24 h, and the cell viability was then measured using the CellTiter96® Aqueous One Solution Cell Proliferation Assay (Promega). Means ± SDs (n=3). (B-C) CH004 or erastin triggers ferroptosis in mouse embryonic fibroblasts (MEF). WT MEF cells were treated with CH004 or erastin at indicated concentrations in the presence or the absence of 500 µM DFO for 24 h before measuring the lipid ROS with 2 μM BODIPY® 581/591 C11 (Materials and methods). […] The cell viability was accordingly quantified using the CellTiter96® Aqueous One Solution Cell Proliferation Assay (Promega) and the results were shown as percentages of DMSO (control, 100%). […]"}, "[3]": {"system": "mouse embryonic fibroblasts (MEF)", "experiment": "lipid ROS (BODIPY 581/591 C11, flow cytometry)", "assay_type": "cell-based", "settings": "low micromolar concentrations, 24 h", "description": "as §1\nas §2, with “(MEF).” for “(MEF). WT MEF cells were treated with CH004 or erastin at indicated concentrations in the presence or the absence of 500 µM DFO for 24 h before measuring the lipid ROS with 2 μM BODIPY® 581/591 C11 (Materials and methods).”"}, "HepG2 cells [4]": {"system": "HepG2 cells", "experiment": "cell viability (CellTiter 96 Aqueous One)", "assay_type": "cell-based, human", "settings": "20 μM, 48 h or 72 h", "description": "Fig. 4 CH004 arrests the cell cycle at the S phase. a CH004 reduces the cell viability of HEK293T and HepG2 cells. HEK293T or HepG2 cells were treated with indicated concentrations of CH004 for 24 h before the cell number was analyzed using the CellTiter96® Aqueous One Solution Cell Proliferation Assay (Promega, Materials and Methods). The means at each concentration of one representative experiment are shown as percentages of DMSO (control, 100%). Means ± SDs (n = 3). b Overexpression of hCBS or knock-down of hCBS counteracts the growth inhibition exerted by CH004 in HEK293T cells. Indicated HEK293T stable cell lines were treated with the CH004 or DMSO for 24 h. Then, the cell viability was quantified with the CellTiter 96® Aqueous One Solution Cell Proliferation Assay under the standard protocol (Promega). The means at each concentration are shown as percentages of their respective DMSO controls (100%). Means ± SDs (n = 3). The efficacy for CBS overexpression and knock-down in HEK293T cells was determined by Western blotting using an anti-CBS antibody (3E1, 1:2000; Abnova). c CH004 induces cell death in HEK293T and HepG2 cells. […] The means of percentages of dead cells (DMSO, 100%) from three independent samples are shown in d. Means ± SDs (n = 3). e, f Pharmacological inhibition or genetic knock-down of hCBS in HEK293T cells arrests the cell cycle at S phase. HEK293T cells were incubated with indicated compounds for 12 h, and the DNA content was quantified with propidium iodide to analyze the cell cycle distribution by flow cytometry (e). The cell cycle distributions for HEK293T-shNT and HEK293T-shCBS cells were accordingly analyzed and are shown in f. One representative diagram is shown for each condition. The mean percentages of various cell phases from three independent samples are shown in the respective right panels. Means ± SDs (n = 3). […]\nFigure S15. […] Indicated HEK293T stable cell lines were treated with CH004 at a concentration of 10 µM for 24 h, and the cell viability was then measured using the CellTiter96® Aqueous One Solution Cell Proliferation Assay (Promega). […]"}},
  "data": [
    {"smiles": "CC(=O)N(O)CCCCCNC(=O)CCC(=O)N(O)CCCCCNC(=O)CCC(=O)N(O)CCCCCN", "note": "[deferoxamine]", "values": [
      {"measurement": "reduction of lipid ROS caused by 10 μM CH004", "setting": "HepG2 cells [1]; 500 μM deferoxamine, HepG2", "result": "almost completely reduced"},
      {"measurement": "rescue of cell death caused by 20 µM CH004", "setting": "HepG2 cells [2]", "result": "partially rescues"}
    ]},
    {"smiles": "CCOc1ccccc1-n1c(C(C)N2CCN(C(=O)COc3ccc(Cl)cc3)CC2)nc2ccccc2c1=O", "note": "(stereo not drawn) [erastin, reference compound]", "values": [
      {"measurement": "induction of ferroptosis (lipid ROS) in MEF", "setting": "[3]", "result": "~ 3 fold"},
      {"measurement": "accumulation of lipid ROS in HepG2 cells", "setting": "HepG2 cells [1]", "result": "did not trigger"},
      {"measurement": "accumulation of lipid ROS in HepG2 cells", "setting": "HepG2 cells [1]; listed as Erastin", "result": "does not induce ferroptosis"},
      {"measurement": "cell death in HepG2 cells", "setting": "HepG2 cells [4]", "result": "did not trigger"}
    ]}
  ]
}
